Laboratory results as given in patent US20050234065A1, “Dipeptidyl peptidase-IV inhibitors” (Pfizer Inc, priority 2004, published 2005).
“And” between values parts separate entries of the source, which are not always exact repeats. Identical values can stand only once. Counter-ions that a name gives are not always drawn.

How the values were obtained:
[1] = Madin-Darby Canine Kidney Cells (MDCK) permeability assay; assay type: in vitro ADME; conditions: dog, apparent permeability, apical to basolateral
Procedure: Drug permeability through MDCK cell monolayers is known to be a useful tool as a model for cellular barrier for assessing intestinal epithelial drug transport, and thus to estimate intestinal permeability for orally administered compounds.
In this assay, monolayer cultures, suitable for investigation of compound permeability, were grown on Falcon/BD 96-well membrane inserts. The monolayers were maintained at 37° C. in a 5% CO2 atmosphere at 95% relative humidity until confluent. Apparent permeabilities of test compounds were determined in duplicate at a single concentration of 2 μM in the apical to basolateral direction. The transport investigations were initiated by the addition of the compound (2 μM of a solution containing 0.4% DMSO) to the apical compartment and the plates were maintained under culture conditions during the course of the experiment. The basolateral compartments following 2.5 hours of exposure and the final apical compartments were collected and analyzed for compound content by LC-MS/MS. The apparent permeability of each compound was then calculated.
Compounds of the present invention, such as those of Examples 18 and 27 were used in this assay. By comparison, comparison DPP-IV inhibitor compounds, which are generically disclosed in International Application WO02/076450, were also synthesized, and then used in this assay.

DPP-IV = biological target: T1, DPP-IV (Homo sapiens, UniProt P27487); test: In vitro assay for dipeptidyl peptidase inhibition; assay type: biochemical; conditions: hydrochloride salts; Gly-Pro-4-methoxy B naphthylamide substrate; overnight at 37° C.; read-out: IC50 (concentration of test compound required for 50% inhibition)
T1 construct: purchased Enzyme Systems Products SPE-01
How it was run: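 DPP-IV at 50 μU/mL with 50 μM Gly-Pro-4-methoxy-β-naphthylamide in 50 mM Tris pH 7.3, 0.1 M NaCl, 0.1% Triton. Final compound concentrations 3 μM–10 nM. Incubated overnight (about 14–18 h) at 37 °C.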

KK/H1J mice = test: In vivo assay for glucose lowering (oral glucose tolerance test); conditions: fasted KK/H1J mice
From the text: The glucose lowering effects of DPP-IV inhibitors for some compounds of the present invention were exemplified in 4-6 week old KK/H1J mice (Jackson Labs) in the context of an oral glucose tolerance test. Oral glucose tolerance tests (“OGTT”) have been in use in humans since, at least, the 1930s, Pincus et al., Am. J. Med. Sci, 188: 782 (1934), and are routinely used in the diagnosis of human diabetes, though not to evaluate the efficacy of therapeutic agents in patients. KK mice have been used to evaluate glitazones (Fujita et al. Diabetes 32:804-810 (1983); Fujiwara et al., Diabetes 37: 1549-48 (1988); Izumi et al. Biopharm Drug. Dispos. 18:247-257 (1997)), metformin (Reddi et al. Diabet. Metabl. 19:44-51 (1993)), glucosidase inhibitors (Hamada et al. Jap. Pharmacol. Ther. 17:17-28 (1988); Matsuo et al. Am. J. Clin. Nutr. 55:314S-317S (1992)), and the extra-pancreatic effects of sulfonylureas (Kameda et al Arzneim. Forsch./Drug Res. 32:39044 (1982); Muller et al. Horm. Metabl. Res. 28:469-487 (1996)).
KK mice are derived from an inbred line first established by Kondo et al. (Kondo et al. Bull. Exp. Anim. 6:107-112 (1957)).
The mice were fasted overnight (about 14-18 hours), but allowed free access to water. […] The blood samples were centrifuged, the plasma collected and analyzed for glucose content on a Roche-Hitachi 912 glucose analyzer. […]

T1 sequence (P27487 whole entry, species assumed): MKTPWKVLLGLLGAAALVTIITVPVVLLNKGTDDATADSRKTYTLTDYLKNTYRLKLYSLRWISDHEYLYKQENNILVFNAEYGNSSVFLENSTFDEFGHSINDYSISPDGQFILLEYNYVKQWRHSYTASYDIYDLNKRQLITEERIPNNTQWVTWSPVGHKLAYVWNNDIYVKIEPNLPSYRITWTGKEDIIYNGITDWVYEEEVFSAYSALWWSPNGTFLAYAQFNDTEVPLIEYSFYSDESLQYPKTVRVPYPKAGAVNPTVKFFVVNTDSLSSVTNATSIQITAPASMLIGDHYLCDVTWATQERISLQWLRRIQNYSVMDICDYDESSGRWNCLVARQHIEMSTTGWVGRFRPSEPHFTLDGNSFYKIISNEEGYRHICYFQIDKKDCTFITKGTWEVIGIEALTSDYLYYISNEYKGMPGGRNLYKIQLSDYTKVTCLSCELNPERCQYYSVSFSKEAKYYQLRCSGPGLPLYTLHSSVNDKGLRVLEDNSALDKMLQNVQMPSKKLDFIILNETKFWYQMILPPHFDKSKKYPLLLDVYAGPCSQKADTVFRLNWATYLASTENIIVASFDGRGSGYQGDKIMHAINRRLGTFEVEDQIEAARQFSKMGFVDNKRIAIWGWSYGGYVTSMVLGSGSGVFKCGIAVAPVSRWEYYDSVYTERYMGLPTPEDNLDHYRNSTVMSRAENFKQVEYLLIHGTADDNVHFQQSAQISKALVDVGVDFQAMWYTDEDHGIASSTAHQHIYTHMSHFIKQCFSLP

| SMILES | IC50 (DPP-IV) | also measured |
| --- | --- | --- |
| Nc1nccnc1C(=O)N[C@H]1CC[C@H]([C@H](N)C(=O)N2CCSC2)CC1 (as salt: hydrochloride) [Example 35, (S)-3-amino-pyrazine-2-carboxylic acid [trans-4-(1-amino-2-oxo-2-thiazolidin-3-yl-ethyl)-cyclohexyl]-amide] |  | melting point: 133.4 to 134.7 °C |
| Nc1nccnc1C(=O)N[C@H]1CC[C@H]([C@H](N)C(=O)N2CCCC2)CC1 [Example 18, (S)-3-amino-pyrazine-2-carboxylic acid [trans-4-(1-Amino-2-oxo-2-pyrrolidin-1-yl-ethyl)-cyclohexyl]-amide] | ≤ 100 nM | Papp A→B at 2.5 h, 2 μM [1]: 4.8 ×10⁻⁶ cm/s |
| N[C@H](C(=O)N1CCCC1)[C@H]1CC[C@H](N2C(=O)c3ccncc3C2=O)CC1 [Example 23, 2-[trans-4-((1S)-1-amino-2-oxo-2-pyrrolidin-1-yl-ethyl)-cyclohexyl]-pyrrolo[3,4-c]pyridine-1,3-dione] | 18 nM and ≤ 100 nM | percent (%) inhibition of glucose excursion (KK/H1J mice; oral dose level of 5 mg/kg, plasma glucose at t=45 minutes): about 65% |
| N[C@H](C(=O)N1CCCC1)[C@H]1CC[C@H](NC(=O)[C@@H]2C[C@@H](O)CN2C(=O)NCc2ccccc2)CC1 [Example 26, (2S,4R)-4-hydroxy-pyrrolidine-1,2-dicarboxylic acid 2-{[trans-4-((1S)-1-Amino-2-oxo-2-pyrrolidin-1-yl-ethyl)-cyclohexyl]-amide}1-benzylamide] | ≤ 100 nM | glucose lowering / inhibition of glucose excursion (in words) (KK/H1J mice; oral dosing, dose not stated): did not demonstrate inhibition |
| N[C@H](C(=O)N1CCCC1)[C@H]1CC[C@H](NC(=O)c2nccnc2NCCc2ccccc2)CC1 [Example 27] | ≤ 100 nM | Papp A→B at 2.5 h, 2 μM [1]: 6.2 ×10⁻⁶ cm/s |
| N[C@H](C(=O)N1CC[C@@H](F)C1)[C@H]1CC[C@H](NC(=O)c2cncc(O)n2)CC1 [Example 53, 6-Hydroxy-pyrazine-2-carboxylic acid {trans-4-[(1S)-1-Amino-2-((3R)-3-fluoro-pyrrolidin-1-yl)-2-oxo-ethyl]-cyclohexyl}-amide] | ≤ 100 nM |  |
| Cn1ccc2cc(C(=O)N[C@H]3CC[C@H]([C@H](N)C(=O)N4CCC[C@H]4C#N)CC3)ncc21 [Example 54, N-(trans-4-{(1S)-1-Amino-2-[(2S)-2-cyanopyrrolidin-1-yl]-2-oxoethyl}cyclohexyl)-1-methyl-1H-pyrrolo[2,3-c]pyridine-5-carboxamide] | ≤ 100 nM |  |
| CC1(C)COc2cnc(C(=O)N[C@H]3CC[C@H]([C@H](N)C(=O)N4CCC[C@H]4C#N)CC3)cc21 [Example 55, N-(trans-4-{(1S)-1-amino-2-[(2S)-2-cyanopyrrolidin-1-yl]-2-oxoethyl}cyclohexyl)-3,3-dimethyl-2,3-dihydrofuro[2,3-c]pyridine-5-carboxamide] | ≤ 100 nM |  |
| N#C[C@@H]1CCCN1C(=O)[C@@H](N)[C@H]1CC[C@H](NC(=O)c2cn3cccc3cn2)CC1 [Example 56, N-(trans-4-{(S)-1-amino-2-[(2S)-2-cyanopyrrolidin-1-yl]-2-oxoethyl}cyclohexyl)pyrrolo[1,2-a]pyrazine-3-carboxamide] | ≤ 100 nM |  |
| N#C[C@@H]1CCCN1C(=O)[C@@H](N)[C@H]1CC[C@H](NC(=O)c2cc3sccc3cn2)CC1 [Example 57, N-(trans-4-{(1S)-1-amino-2-[(2S)-2-cyanopyrrolidin-1-yl]-2-oxoethyl}cyclohexyl)thieno[3,2-c]pyridine-6-carboxamide] | ≤ 100 nM |  |
| N#C[C@@H]1CCCN1C(=O)[C@@H](N)[C@H]1CC[C@H](NC(=O)c2cc3ccoc3cn2)CC1 [Example 58, N-(trans-4-{(1S)-1-amino-2-[(2S)-2-cyanopyrrolidin-1-yl]-2-oxoethyl}cyclohexyl) furo[2,3-c]pyridine-5-carboxamide] | ≤ 100 nM |  |
| Cc1cc(C)n2cnc(C(=O)N[C@H]3CC[C@H]([C@H](N)C(=O)N4CCC[C@H]4C#N)CC3)cc12 [Example 59, N-(trans-4-{(1S)-1-amino-2-[(2S)-2-cyanopyrrolidin-1-yl]-2-oxoethyl}cyclohexyl)-5,7-dimethylpyrrolo[1,2-c]pyrimidine-3-carboxamide] | ≤ 100 nM |  |
| N#C[C@@H]1CCCN1C(=O)[C@@H](N)[C@H]1CC[C@H](NC(=O)c2cc3ccsc3cn2)CC1 [Example 60, N-(trans-4-{(1S)-1-amino-2-[(2S)-2-cyanopyrrolidin-1-yl]-2-oxoethyl}cyclohexyl)thieno[2,3-c]pyridine-5-carboxamide] | ≤ 100 nM |  |
| N#C[C@@H]1CCCN1C(=O)[C@@H](N)[C@H]1CC[C@H](NC(=O)c2cc3occc3cn2)CC1 [Example 61, N-(trans-4-{(1S)-1-amino-2-[(2S)-2-cyanopyrrolidin-1-yl]-2-oxoethyl}cyclohexyl)furo[3,2-c]pyridine-6-carboxamide] | ≤ 100 nM |  |
| C#Cc1coc2cnc(C(=O)N[C@H]3CC[C@H]([C@H](N)C(=O)N4CCC[C@H]4C#N)CC3)cc12 [Example 62, N-(trans-4-{(S)-1-amino-2-[(2S)-2-cyanopyrrolidin-1-yl]-2-oxoethyl}cyclohexyl)-3-ethynylfuro[2,3-c]pyridine-5-carboxamide] | ≤ 100 nM |  |
| N[C@H](C(=O)N1CCCC1)[C@H]1CC[C@H](NC(=O)c2cnccn2)CC1 [reference compound] |  | Papp A→B at 2.5 h, 2 μM [1]: 1.1 ×10⁻⁶ cm/s |
| Cc1cnc(C(=O)N[C@H]2CC[C@H]([C@H](N)C(=O)N3CCCC3)CC2)cn1 [reference compound] |  | Papp A→B at 2.5 h, 2 μM [1]: 0.7 ×10⁻⁶ cm/s |
